Assay results as given in paper PMC9266797 (2022).

Experiments:
[1] = tested on: poly A–poly U (RNA, polymer) A/U; assay: UV melting at 260 nm; conditions: Na+ (sodium cacodylate, I = 0.05 M); pH 7.0; RNA 25 µM, r = 0.25; no Cu2+; per base
[2] = tested on: poly dAdT–poly dAdT (DNA, polymer) AT; assay: DAPI displacement by CD (ICD at 375 nm); conditions: Na+ (sodium cacodylate, I = 0.05 M), pH 7.0, DAPI displaced; for IDA50%: ratio [DAPI]/[compound], range printed for 6 and 7 together
[3] = tested on: poly dAdT–poly dAdT (DNA, polymer) AT; assay: UV melting at 260 nm; conditions: Na+ (sodium cacodylate, I = 0.05 M); pH 7.0; DNA 25 µM; no Cu2+; per base
[4] = tested on: poly A–poly U (RNA, polymer) A/U; assay: fluorimetric titration, Scatchard fit; conditions: Na+ (sodium cacodylate, I = 0.05 M), n fixed at 0.2 per nucleobase, per base
[5] = tested on: poly dAdT–poly dAdT (DNA, polymer) AT; assay: CD (induced band at 375 nm); conditions: Na+ (sodium cacodylate, I = 0.05 M); pH 7.0; DNA 20 µM, r[DAPI]/[DNA] = 0.6

Structure (SMILES)	∆Tm [1]	IDA50% [2]	∆Tm [3]	log Ks ([4]; pH 7.0, 0.04% DMSO, 1 µM compound)	binding ([2]; very weakly)	log Ks ([4]; pH 7.0)	binding [5]
COC(=O)[C@H](Cc1c[nH]c2ccccc12)NC(=O)C(Cc1cn(COC(=O)C(C)(C)C)nn1)NC(=O)CCCc1ccc2ccc3cccc4ccc1c2c34 (stereo partly shown)	0 ± 0.5 °C	0.02–0.01	0 ± 0.5 °C	6.8	–	–	–
COC(=O)[C@H](Cc1c[nH]c2ccccc12)NC(=O)C(Cc1cn(COC(=O)C(C)(C)C)nn1)NC(=O)[C@@H](N)Cc1c[nH]c2ccccc12 (stereo partly shown)	0 ± 0.5 °C	–	–	–	weak	–	–
COC(=O)[C@H](Cc1c[nH]c2ccccc12)NC(=O)C(Cc1cn(COC(=O)C(C)(C)C)nn1)NC(=O)c1ccc2ccc3cccc4ccc1c2c34 (stereo partly shown)	0 ± 0.5 °C	0.02–0.01	–	–	–	6.6	–
N=C(N)c1ccc(-c2cc3ccc(C(=N)N)cc3[nH]2)cc1	–	–	–	–	–	–	yes
